Values joined by “and” are separate entries in the source; they are usually repeats but may differ in a detail not shown here. Equal entries are not always repeated.
Legend:
[1] = Permeability across excised pig cornea (perfusion method, HPLC); assay type: in vitro ADME; details: for Amount of epinephrine released by 2B223 in the receiving compartment: released by 2B223 (2450 nMoles in donor); for Amount of epinephrine released by 2B852 in the receiving compartment: released by 2B852 (2770 nMoles in donor); for Amount of unchanged product in the receiving compartment (permeability rate): 2.5 mM in donor, GBR pH 7.65, 34-35 °C; for Release of epinephrine inside the eye: conclusion from the excised cornea experiment
Experimental: Perfusion method: pig corneas have been removed with about 2 mm of sclera and set on a perfusion cell.
The receiving compartment and that of the donor were respectively filled with 6 ml and 1 ml of GBR solution (Glutathione Bicarbonate Ringer's solution) preheated at 35° C.
During the analysis the cells were maintained at a temperature of 34°-35° C. with a thermostat (REACTI-THERM, Pierce). Besides, the solutions in the 2 compartments were maintained under a flow of 95% O2 --5% CO2 mixture.
The GBR solution in the donor compartment was then substituted with 1 ml of GBR solution saturated with O2 --CO2 containing, 2B223 or 2B852 (2.5 mM).
Aliquots of 600 μl were withdrawn from the receiving compartment every 40 minutes for a period of 4 hours and immediately replaced with an equal volume of GBR.
A solution of GBR with diclofenac (0.1%) maintained at the same conditions (temperature 34°-35° C. and gassed with (O2 --CO2) acted as control aliquots from the control were withdrawn at the same times.
The samples and the controls at various times were immediately analyzed by HPLC.
Solutions: Glutathione Bicarbonate Ringer's (GBR), pH 7.65. The GBR solution was prepared in two parts: part I was composed of sodium chloride 12.4 g/l, potassium chloride 0.716 g/l, sodium dihydrogen phosphate monohydrate 0.206 g/l and sodium bicarbonate 4.908 g/l while part II was composed of calcium chloride 0.230 g/l, magnesium chloride 0.318 g/l, glucose 1.8 g/l and oxidized glutathioine 0.184 g/l. Both parts were stored cold and utilized within two weeks.
Equal volumes of part I and II were mixed prior to use.

[2] = applied topically to the eye; stated as known; cited from earlier work
[3] = test system: Intraocular pressure in rabbit; assay: Intraocular pressure in rabbit after topical application; assay type: in vivo; details: 0.1% solution topical; for Intraocular pressure: individual animal, Hydrochloride; for Intraocular pressure, mean: N=6
[4] = test system: Ocular Hypertension in Man; assay: Ocular pressure in patients with non-severe ocular hypertension after instillation; assay type: in vivo; details: one drop 0.1% solution; for Ocular pressure: individual patient, Hydrochloride; for Ocular pressure, mean: N=4
Experimental: 1 drop of a 0.1% solution of 2B223 or 2B852, respectively, was instilled into each eye of 8 patients (males) suffering from non-severe ocular hypertension. Ocular pressure was tested at time 0, and 30, 120, 180 minutes after the ocular instillation. At same times blood pressure and heart rate were also tested.

| Structure (SMILES) | Amount of unchanged product in the receiving compartment (permeability rate) ([1]; 40 min) [nmol] | Amount of unchanged product in the receiving compartment (permeability rate) ([1]; 80 min) [nmol] | Amount of unchanged product in the receiving compartment (permeability rate) ([1]; 120 min) [nmol] | Amount of unchanged product in the receiving compartment (permeability rate) ([1]; 160 min) [nmol] | Release of epinephrine inside the eye [1] | Intraocular pressure ([3]; 1 hour) | Intraocular pressure ([3]; 2 hours) | Intraocular pressure ([3]; 4 hours) | Intraocular pressure ([3]; 8 hours) | Intraocular pressure ([3]; time 0 (baseline)) | Intraocular pressure, mean ([3]; 1 hour) [mm Hg] | Intraocular pressure, mean ([3]; 2 hours) [mm Hg] | Intraocular pressure, mean ([3]; 4 hours) [mm Hg] | Intraocular pressure, mean ([3]; 8 hours) [mm Hg] | Intraocular pressure, mean ([3]; time 0 (baseline)) [mm Hg] | Ocular pressure ([4]; left eye, 0 min (baseline)) | Ocular pressure ([4]; left eye, 30 min) | Ocular pressure ([4]; left eye, 120 min) | Ocular pressure ([4]; left eye, 180 min) | Ocular pressure ([4]; right eye, 0 min (baseline)) | also measured |
| --- | --- | --- | --- | --- | --- | --- | --- | --- | --- | --- | --- | --- | --- | --- | --- | --- | --- | --- | --- | --- | --- |
| CNC[C@H](O)c1ccc(O)c(O)c1 [EPINEPHRINE, epinephrine, reference compound] | – | – | – | – | – | – | – | – | – | – | – | – | – | – | – | – | – | – | – | – | Amount of epinephrine released by 2B223 in the receiving compartment ([1]; 40 min): 15.8 nmol; Amount of epinephrine released by 2B223 in the receiving compartment ([1]; 80 min): 21.7 nmol; Amount of epinephrine released by 2B223 in the receiving compartment ([1]; 120 min): 23.4 nmol; Amount of epinephrine released by 2B223 in the receiving compartment ([1]; 160 min): 26.2 nmol; Amount of epinephrine released by 2B852 in the receiving compartment ([1]; 40 min): 14.5 nmol; Amount of epinephrine released by 2B852 in the receiving compartment ([1]; 80 min): 23.7 nmol; Amount of epinephrine released by 2B852 in the receiving compartment ([1]; 120 min): 28.9 nmol; Amount of epinephrine released by 2B852 in the receiving compartment ([1]; 160 min): 32.0 nmol; Permeation of cornea barrier [2]: does not permeate cornea barrier |
| CNCC(O)c1ccc(OC(=O)N(C)C)c(OC(=O)c2ccc(C)cc2)c1.Cl (centres unmarked) [2B223, 3-O-(4-Methylbenzoyl)-4-O-(N,N-Dimethylcarbamoyl)adrenaline Hydrochloride] | 0.0 | 1.3 | 4.1 | 23.5 | epinephrine is released inside the eye | 12 mm Hg and 13 mm Hg and 11 mm Hg | 13 mm Hg and 14 mm Hg | 14 mm Hg and 15 mm Hg and 13 mm Hg | 15 mm Hg and 16 mm Hg and 14 mm Hg | 16 mm Hg and 15 mm Hg and 17 mm Hg | 12.2 | 13.3 | 14.2 | 15.2 | 16.0 | 26 mmHg and 25 mmHg | 25 mmHg and 23 mmHg | 20 mmHg and 22 mmHg | 22 mmHg and 24 mmHg and 25 mmHg | 27 mmHg and 24 mmHg and 23 mmHg | Ocular pressure ([4]; right eye, 30 min): 24 mmHg and 23 mmHg and 25 mmHg; Ocular pressure ([4]; right eye, 120 min): 22 mmHg and 21 mmHg and 23 mmHg; Ocular pressure ([4]; right eye, 180 min): 23 mmHg and 22 mmHg and 24 mmHg; Ocular pressure, mean ([4]; left eye, 0 min (baseline)): 25.8 mmHg; Ocular pressure, mean ([4]; left eye, 30 min): 24.5 mmHg; Ocular pressure, mean ([4]; left eye, 120 min): 21.5 mmHg; Ocular pressure, mean ([4]; left eye, 180 min): 23.8 mmHg; Ocular pressure, mean ([4]; right eye, 0 min (baseline)): 25.3 mmHg; Ocular pressure, mean ([4]; right eye, 30 min): 24.0 mmHg; Ocular pressure, mean ([4]; right eye, 120 min): 22.3 mmHg; Ocular pressure, mean ([4]; right eye, 180 min): 23.3 mmHg |
| CNCC(O)c1ccc(OC(=O)N(C)C)c(OC(=O)C(C)C)c1.Cl (centres unmarked) [2B852, 3-O-Isobutyryl-4-O-(N,N-Dimethylcarbamoyl)adrenaline Hydrochloride] | 0.0 | 0.0 | 0.0 | 0.0 | epinephrine is released inside the eye | 12 mm Hg and 13 mm Hg and 11 mm Hg | 13 mm Hg and 14 mm Hg | 14 mm Hg and 15 mm Hg | 16 mm Hg and 15 mm Hg and 14 mm Hg | 15 mm Hg and 16 mm Hg | 11.8 | 13.5 | 14.3 | 15.3 | 15.7 | 27 mmHg and 26 mmHg | 26 mmHg and 24 mmHg and 25 mmHg | 24 mmHg and 22 mmHg and 25 mmHg | 23 mmHg and 25 mmHg | 26 mmHg and 25 mmHg and 24 mmHg and 28 mmHg | Ocular pressure ([4]; right eye, 30 min): 25 mmHg and 24 mmHg and 23 mmHg and 26 mmHg; Ocular pressure ([4]; right eye, 120 min): 23 mmHg and 22 mmHg and 24 mmHg; Ocular pressure ([4]; right eye, 180 min): 25 mmHg and 22 mmHg and 23 mmHg and 24 mmHg; Ocular pressure, mean ([4]; left eye, 0 min (baseline)): 26.5 mmHg; Ocular pressure, mean ([4]; left eye, 30 min): 25.3 mmHg; Ocular pressure, mean ([4]; left eye, 120 min): 23.8 mmHg; Ocular pressure, mean ([4]; left eye, 180 min): 23.8 mmHg; Ocular pressure, mean ([4]; right eye, 0 min (baseline)): 25.8 mmHg; Ocular pressure, mean ([4]; right eye, 30 min): 24.0 mmHg; Ocular pressure, mean ([4]; right eye, 120 min): 23.0 mmHg; Ocular pressure, mean ([4]; right eye, 180 min): 23.5 mmHg |

— patent US5144059A, “Catecholamine esters” (priority 1989, dated 1992)
